Source: ChEMBL document CHEMBL6074649, “An insight into recent developments in imidazole based heterocyclic compounds as anticancer agents: Synthesis, SARs, and mechanism of actions” (Eur J Med Chem, 2024)
≈ marks a conversion by molar mass, not a printed value.

Tests used:
[1] = tested on: COLO 205; assay: Cytotoxicity against human COLO 205 cells assessed as reduction in cell viability by MTT assay; format: functional, cell-based
[2] = tested on: K562; assay: Antiproliferative activity against human K562 cells assessed as reduction in cell growth incubated for 48 hrs by MTT assay; format: functional, cell-based; conditions: K562, 48 h
[3] = tested on: HeLa; assay: Antiproliferative activity against human HeLa cells assessed as reduction in cell growth incubated for 48 hrs by MTT assay; format: functional, cell-based
[4] = tested on: MCF7; assay: Cytotoxicity against human MCF7 cells assessed as reduction in cell viability by MTT assay; format: functional, cell-based
[5] = tested on: A2780; assay: Cytotoxicity against human A2780 cells assessed as reduction in cell viability by MTT assay; format: functional, cell-based
[6] = Antiproliferative activity against human MRC5 cells assessed as reduction in cell viability incubated for 24 hrs by MTT assay; format: toxicity, cell-based
[7] = tested on: AGS; assay: Antiproliferative activity against human AGS cells assessed as reduction in cell viability incubated for 24 hrs by MTT assay; format: functional, cell-based
[8] = tested on: A549; assay: Antiproliferative activity against human A549 cells assessed as reduction in cell viability incubated for 24 hrs by MTT assay; format: functional, cell-based; conditions: A549, 24 h
[9] = tested on: MCF7; assay: Cytotoxicity against human MCF7 cells assessed as reduction in cell growth incubated for 24 hrs by SRB assay; format: functional, cell-based; conditions: MCF7, 24 h
[10] = tested on: HepG2; assay: Cytotoxicity against human HepG2 cells assessed as reduction in cell growth incubated for 24 hrs by SRB assay; format: functional, cell-based; conditions: HepG2, 24 h
[11] = tested on: MCF7; assay: Anticancer activity against human MCF7 cells at 62.5 uM relative to control; format: functional
[12] = tested on: MCF7; assay: Anticancer activity against human MCF7 cells at 1.9 uM relative to control; format: functional
[13] = tested on: MCF7; assay: Anticancer activity against human MCF7 cells at 1.5 uM relative to control; format: functional
[14] = tested on: MCF7; assay: Anticancer activity against human MCF7 cells at 31.25 uM relative to control; format: functional
[15] = tested on: MCF7; assay: Anticancer activity against human MCF7 cells at 15.6 uM relative to control; format: functional
[16] = tested on: MCF7; assay: Anticancer activity against human MCF7 cells at 500 uM relative to control; format: functional
[17] = tested on: MCF7; assay: Anticancer activity against human MCF7 cells at 7.8 uM relative to control; format: functional
[18] = tested on: MCF7; assay: Anticancer activity against human MCF7 cells at 3.9 uM relative to control; format: functional
[19] = tested on: MCF7; assay: Anticancer activity against human MCF7 cells at 125 uM relative to control; format: functional
[20] = Antiproliferative activity against human HepG2 cells assessed as reduction in cell growth by MTT assay; format: toxicity, cell-based
[21] = tested on: MDA-MB-231; assay: Antiproliferative activity against human MDA-MB-231 cells assessed as reduction in cell growth by MTT assay; format: functional, cell-based
[22] = tested on: L02; assay: Antiproliferative activity against human LO2 cells assessed as reduction in cell growth by MTT assay; format: functional, cell-based
[23] = Antiproliferative activity against human MCF-10A cells assessed as reduction in cell growth by MTT assay; format: toxicity, cell-based
[24] = tested on: HepG2; assay: Cytotoxicity against human HepG2 cells assessed as reduction in cell growth incubated for 24 hrs by MTT assay; format: functional, cell-based; conditions: HepG2, 24 h
[25] = tested on: MCF7; assay: Cytotoxicity against human MCF7 cells assessed as reduction in cell growth measured for 24 hrs by MTT assay; format: functional, cell-based; conditions: MCF7, 24 h
[26] = tested on: Caco-2; assay: Cytotoxicity against human Caco-2 cells assessed as reduction in cell growth measured for 24 hrs by MTT assay; format: functional, cell-based; conditions: Caco-2, 24 h
[27] = tested on: A549; assay: Cytotoxicity against human A549 cells assessed as reduction in cell viability by MTT assay; format: functional, cell-based
[28] = tested on: Leukemia cell; assay: Growth inhibition of human Leukemia cell; format: functional
[29] = tested on: HeLa; assay: Anticancer activity against human HeLa cells assessed as reduction in cell viability incubated for 48 hrs by MTT assay; format: functional, cell-based
[30] = tested on: A549; assay: Anticancer activity against human A549 cells assessed as reduction in cell viability incubated for 48 hrs by MTT assay; format: functional, cell-based; conditions: A549, 48 h
[31] = tested on: IMR-32; assay: Anticancer activity against human IMR-32 cells assessed as reduction in cell viability incubated for 48 hrs by MTT assay; format: functional, cell-based; conditions: IMR-32, 48 h
[32] = Anticancer activity against HEK293 cells assessed as reduction in cell viability incubated for 48 hrs by MTT assay; format: toxicity, cell-based; conditions: human

## COc1cc([C@@H]2c3cc4c(cc3[C@@H](O[C@@H]3O[C@@H]5CO[C@@H](C)O[C@H]5[C@H](O)[C@H]3O)[C@H]3COC(=O)[C@H]23)OCO4)cc(OC)c1O [ETOPOSIDE]
[1]
  IC50: 0.13 µM
[2]
  IC50: 6 µM
[3]
  IC50: 2.99 µM
[4]
  IC50: 2.11 µM
[5]
  IC50: 1.31 µM

## Cn1ccnc1/C=C/C(=O)c1ccc(F)cc1
[6]
  IC50 at 24 h: > 100 µM
[7]
  IC50: 29.3 µM
[8]
  IC50: > 100 µM

## CC[C@]1(O)C[C@@H]2CN(CCc3c([nH]c4ccccc34)[C@@](C(=O)OC)(c3cc4c(cc3OC)N(C)[C@H]3[C@@](O)(C(=O)OC)[C@H](OC(C)=O)[C@]5(CC)C=CCN6CC[C@]43[C@@H]65)C2)C1.O=S(=O)(O)O [VINBLASTINE SULFATE]
[9]
  IC50: 5.7 µg/mL
[10]
  IC50: 4.6 µg/mL

## COc1cc([C@@H]2c3cc4c(cc3[C@@H](n3cnc([N+](=O)[O-])c3)[C@H]3COC(=O)[C@H]23)OCO4)cc(OC)c1O
[2]
  IC50: 7.43 µM

## COc1ccc(-c2nc(-c3ccccc3)c(-c3ccccc3)n2Cc2ccc(F)cc2)cc1
[11]
  inhibition at 62.5 µM: 41%
[12]
  inhibition at 1.9 µM: 88%
[13]
  inhibition at 1.5 µM: 82%
[14]
  inhibition at 31.25 µM: 54%
[15]
  inhibition at 15.6 µM: 65%
[16]
  inhibition at 500 µM: 13%
[17]
  inhibition at 7.8 µM: 73%
[18]
  inhibition at 3.9 µM: 79%
[19]
  inhibition at 125 µM: 39%

## Fc1ccc(Cn2c(-c3ccc(Br)cc3)nc(-c3ccccc3)c2-c2ccccc2)cc1
[11]
  inhibition at 62.5 µM: 24%
[12]
  inhibition at 1.9 µM: 75%
[13]
  inhibition at 1.5 µM: 84%
[14]
  inhibition at 31.25 µM: 30%
[15]
  inhibition at 15.6 µM: 36%
[16]
  inhibition at 500 µM: 5%
[17]
  inhibition at 7.8 µM: 63%
[18]
  inhibition at 3.9 µM: 69%
[19]
  inhibition at 125 µM: 20%

## Brc1ccc(-c2nc(-c3ccccc3)c(-c3ccccc3)[nH]2)cn1
[20]
  IC50: 26.7 µM
[21]
  IC50: 17.8 µM
[22]
  IC50: 22 µM
[23]
  IC50: 36.8 µM

## c1ccc(-c2nc(-c3ccc(OCc4c(COc5ccc(-c6nc(-c7ccccc7)c(-c7ccccc7)[nH]6)cc5)c(COc5ccc(-c6nc(-c7ccccc7)c(-c7ccccc7)[nH]6)cc5)c(COc5ccc(-c6nc(-c7ccccc7)c(-c7ccccc7)[nH]6)cc5)c(COc5ccc(-c6nc(-c7ccccc7)c(-c7ccccc7)[nH]6)cc5)c4COc4ccc(-c5nc(-c6ccccc6)c(-c6ccccc6)[nH]5)cc4)cc3)[nH]c2-c2ccccc2)cc1
[24]
  IC50: 9.77 µM
[25]
  IC50: 35.4 µM
[26]
  IC50: 32.5 µM

## c1ccc(-c2nc(-c3c[nH]c4ccccc34)[nH]c2-c2ccccc2)cc1
[20]
  IC50: 29.3 µM
[21]
  IC50: 31.4 µM
[22]
  IC50: 34.7 µM
[23]
  IC50: 31.8 µM

## O=[N+]([O-])c1cccc(S(=O)(=O)n2ccnc2-c2ccon2)c1
[1]
  IC50: 1.9 µM
[27]
  IC50: 1.14 µM
[4]
  IC50: 1.03 µM
[5]
  IC50: 0.63 µM

## Cc1nc(S)n(-c2ccccc2)c1-c1cc(-c2ccc(-c3cc(-c4c(C)nc(S)n4-c4ccccc4)nc(N)c3C#N)cc2)c(C#N)c(N)n1
[9]
  IC50: 1.7 µg/mL (≈ 2.47 µM)
[10]
  IC50: 6 µg/mL (≈ 8.71 µM)

## COc1cc([C@@H]2c3cc4c(cc3[C@@H](n3ccnc3)[C@H]3COC(=O)[C@H]23)OCO4)cc(OC)c1OC
[2]
  IC50: 2.88 µM
[3]
  IC50: 5.22 µM

## COc1ccc(Nn2c(SCC(=O)Nc3nc(-c4ccc(Cl)cc4)cs3)nc(C)c2C)cc1
[28]
  GI50: 4.15 µM

## COc1cc([C@@H]2c3cc4c(cc3[C@H](n3cnc(C)c3)[C@H]3COC(=O)[C@H]23)OCO4)cc(OC)c1OC
[2]
  IC50: 8.8 µM
[3]
  IC50: 4.48 µM

## Cc1ccc(Nn2c(SCC(=O)Nc3nc(-c4ccccc4)cs3)nc(C)c2C)cc1
[28]
  GI50: 3.91 µM

## Cc1nc(S)n(-c2ccccc2)c1-c1cc(-c2ccccc2O)c(C#N)c(=O)[nH]1
[9]
  IC50: 2 µg/mL (≈ 4.99 µM)
[10]
  IC50: 3 µg/mL (≈ 7.49 µM)

## COc1ccc(C(=O)/C=C/c2nc3ccccc3n2C)cc1
[6]
  IC50 at 24 h: 45.9 µM
[7]
  IC50: 15.1 µM
[8]
  IC50: 68.1 µM

## Cc1ccc(-c2nc(-c3ccccc3)c(-c3ccccc3)n2Cc2ccc(F)cc2)cc1
[11]
  inhibition at 62.5 µM: 38%
[12]
  inhibition at 1.9 µM: 87%
[13]
  inhibition at 1.5 µM: 90%
[14]
  inhibition at 31.25 µM: 47%
[15]
  inhibition at 15.6 µM: 53%
[16]
  inhibition at 500 µM: 15%
[17]
  inhibition at 7.8 µM: 66%
[18]
  inhibition at 3.9 µM: 72%
[19]
  inhibition at 125 µM: 29%

## COc1ccc(C(=O)/C=C/c2nccn2C)cc1
[6]
  IC50 at 24 h: 67.4 µM
[7]
  IC50: 20.9 µM
[8]
  IC50: 61.7 µM

## Clc1ncccc1-c1nc(-c2ccccc2)c(-c2ccccc2)[nH]1
[20]
  IC50: 19.7 µM
[21]
  IC50: 24.1 µM
[22]
  IC50: > 50 µM
[23]
  IC50: > 50 µM

## Fc1ccc(Cn2c(-c3ccc(Cl)cc3)nc(-c3ccccc3)c2-c2ccccc2)cc1
[11]
  inhibition at 62.5 µM: 30%
[12]
  inhibition at 1.9 µM: 65%
[13]
  inhibition at 1.5 µM: 88%
[14]
  inhibition at 31.25 µM: 39%
[15]
  inhibition at 15.6 µM: 55%
[16]
  inhibition at 500 µM: 12%
[17]
  inhibition at 7.8 µM: 63%
[18]
  inhibition at 3.9 µM: 78%
[19]
  inhibition at 125 µM: 24%

## c1ccc(-c2nc(-c3ccc(OCc4cc(COc5ccc(-c6nc(-c7ccccc7)c(-c7ccccc7)[nH]6)cc5)c(COc5ccc(-c6nc(-c7ccccc7)c(-c7ccccc7)[nH]6)cc5)cc4COc4ccc(-c5nc(-c6ccccc6)c(-c6ccccc6)[nH]5)cc4)cc3)[nH]c2-c2ccccc2)cc1
[24]
  IC50: 19.1 µM
[25]
  IC50: 12.6 µM
[26]
  IC50: 34.8 µM

## Cc1nc(SCC(=O)Nc2nc(-c3ccc(Cl)cc3)cs2)n(Nc2ccccc2)c1C
[28]
  GI50: 3.08 µM

## Brc1ccc(-c2nc(-c3c[nH]c4ccccc34)[nH]c2-c2ccc(Br)cc2)cc1
[29]
  IC50: 11.2 µM
[30]
  IC50: 9.52 µM
[31]
  IC50: 10.5 µM
[32]
  IC50 at 48 h: 98.5 µM

## c1coc(-c2nc(-c3ccc(OCCCOc4ccc(-c5nc(-c6ccco6)c(-c6ccco6)[nH]5)cc4)cc3)[nH]c2-c2ccoc2)c1
[24]
  IC50: 8.14 µM
[25]
  IC50: 59.2 µM
[26]
  IC50: 327 µM

## O=c1c(-c2nc(-c3ccc(Br)cc3)c(-c3ccc(Br)cc3)[nH]2)coc2ccccc12
[29]
  IC50: 24.7 µM
[30]
  IC50: 27.1 µM
[31]
  IC50: 29.4 µM
[32]
  IC50 at 48 h: 82.3 µM

## O=[N+]([O-])c1ccccc1-c1nc(-c2ccc(Br)cc2)c(-c2ccc(Br)cc2)[nH]1
[29]
  IC50: 13.6 µM
[30]
  IC50: 12.5 µM
[31]
  IC50: 10.3 µM
[32]
  IC50 at 48 h: 94.3 µM
